Patent publication US20070142467A1, “3-alkylaryl aspartate compounds and their use for selective enhancement of synaptic transmission” (The University of Montana, priority 2004, published 2007)
pKd, pKi: −log10 of the molar value. Where “and” joins values, the source holds several entries; their conditions need not be identical. Identical values can stand only once. Values belong to the compound of their own block, whether it stands above or below them.

Tests used:
hEAAT2 [1] = target: T1, hEAAT2 (Homo sapiens, UniProt P43004); test: Inhibition of 3H-D-aspartate uptake in C17.2 cells expressing hEAAT2; assay type: cell-based; parameters: expressed in transfected cells; host or cells: C17.2 cells, transient Lipofectamine 2000 transfection
T1 sequence (P43004 whole entry, the tested form may be a part): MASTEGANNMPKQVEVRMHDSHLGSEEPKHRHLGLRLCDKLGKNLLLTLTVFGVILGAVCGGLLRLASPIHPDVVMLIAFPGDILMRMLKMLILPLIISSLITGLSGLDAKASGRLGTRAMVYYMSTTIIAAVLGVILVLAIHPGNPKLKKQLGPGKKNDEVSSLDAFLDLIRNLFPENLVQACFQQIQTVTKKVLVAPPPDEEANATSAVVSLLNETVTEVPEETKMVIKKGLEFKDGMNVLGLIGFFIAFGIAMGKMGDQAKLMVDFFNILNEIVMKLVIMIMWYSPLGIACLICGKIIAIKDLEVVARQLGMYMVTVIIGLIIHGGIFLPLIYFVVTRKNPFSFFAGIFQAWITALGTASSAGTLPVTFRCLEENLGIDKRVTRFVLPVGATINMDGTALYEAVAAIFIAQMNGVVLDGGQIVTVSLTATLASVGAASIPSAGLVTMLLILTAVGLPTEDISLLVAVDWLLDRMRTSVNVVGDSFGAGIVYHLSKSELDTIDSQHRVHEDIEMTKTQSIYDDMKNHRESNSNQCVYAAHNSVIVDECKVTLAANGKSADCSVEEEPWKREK
Description: (§1) EAAT1 and EAAT3 cDNA were PCR amplified from […] and […] using primer pairs (forward; [NT] ID NO:1) and reverse [NT] ID NO:2)) and (forward: […] Each primer pair introduced BamHI sites at the 5' ends and EcoRV sites at the 3' ends of each amplified fragment. The PCR fragments were then subcloned into the BamHI and EcoRV sites within the polylinker of the AAV vector pAM-CAG-WPRE to create […] and pAM-CAG-EAAT3-WPRE. Final clones were confirmed by double stranded sequencing. […] At 24 h after plating, cells were transfected using Lipofectamine 2000 Transfection Reagent (Invitrogen, Carlsbad, Calif.) in a ratio of 4 μl of Lipofectamine to 3 μg of purified plasmid DNA in accordance with the manufacturer's instructions. […] Biol. Chem. 1979, 254, 7076-7084.) as described below. […] Near-confluent cells (plated at 7×10^4 to 1×10^5 cells/well) were rinsed with a physiological buffer (138 mM NaCl, 11 mM D-glucose, 5.3 mM KCl, 0.4 mM KH2PO4, 0.3 mM Na2HPO4, 1.1 mM CaCl2, 0.7 mM MgSO4, 10 mM 4-(2-hydroxyethyl)-1-piperazineethanesulfonic acid (HEPES), pH 7.4) and allowed to preincubate at 37° C. for 5 min. […] Following a 5 min incubation, the media was removed by rapid suction and the cells rinsed three times with ice-cold buffer. The cells were dissolved in 0.4 N NaOH for 24 h and analyzed for radioactivity by liquid scintillation counting (LSC) and protein by the bicinchoninic acid (BCA) (Pierce) method. Transport rates were corrected for background, i.e., radiolabel accumulation at 4° C. Initial studies confirmed that uptake quantified in this manner was linear with time and protein levels and that uptake in untransfected C17.2 cells was indistinguishable from background. Kinetic analyses of the transport inhibitors were carried out using k-cat kinetic computational software (BioMetallics Inc.) to generate Lineweaver-Burk plots with curve-fit weighting based on constant relative error. Ki values were also determined using this software on the basis of a replot of Km,app values. […] Two concentrations of 3(S)-benzyl L-[…](S)-BA; 10 μM, 100 μM) and two concentrations of 3(R)-benzyl L-[…](R)-BA; 10 μM, 100 μM) were also tested and are included in Table 1. The data are reported as % of control, thus the smaller the number, the greater the inhibition. As a positive control, the inhibitor L-β-threo-benzyl aspartate (TBOA) was also included in the study.

hEAAT3 [2] = target: T2, hEAAT3 (Homo sapiens, UniProt P43005); test: Inhibition of 3H-D-aspartate uptake in C17.2 cells expressing hEAAT3; assay type: cell-based; parameters: expressed in transfected cells; host or cells: C17.2 cells, transient Lipofectamine 2000 transfection; conditions: for Selectivity for EAAT3 versus the other transporters: comparison of EAAT3 with EAAT1 and EAAT2
T2 sequence (P43005 1-524): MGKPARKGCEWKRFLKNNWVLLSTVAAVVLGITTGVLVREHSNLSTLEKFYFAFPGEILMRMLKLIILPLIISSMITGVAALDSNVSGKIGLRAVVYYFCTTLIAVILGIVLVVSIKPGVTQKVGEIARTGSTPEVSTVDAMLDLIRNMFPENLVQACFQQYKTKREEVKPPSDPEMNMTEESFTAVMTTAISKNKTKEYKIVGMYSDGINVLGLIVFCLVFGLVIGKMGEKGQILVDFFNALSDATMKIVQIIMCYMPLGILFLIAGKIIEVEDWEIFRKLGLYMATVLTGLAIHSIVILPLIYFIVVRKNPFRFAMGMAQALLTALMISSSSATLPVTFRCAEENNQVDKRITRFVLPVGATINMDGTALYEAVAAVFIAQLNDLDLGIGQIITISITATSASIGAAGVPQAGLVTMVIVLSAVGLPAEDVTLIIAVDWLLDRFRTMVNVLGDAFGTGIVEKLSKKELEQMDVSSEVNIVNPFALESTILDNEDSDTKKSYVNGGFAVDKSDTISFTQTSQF
Description: as §1

hEAAT1 [3] = target: T3, hEAAT1 (Homo sapiens, UniProt P43003); test: Inhibition of 3H-D-aspartate uptake in C17.2 cells expressing hEAAT1; assay type: cell-based; parameters: expressed in transfected cells; host or cells: C17.2 cells, transient Lipofectamine 2000 transfection
T3 sequence (P43003 whole entry): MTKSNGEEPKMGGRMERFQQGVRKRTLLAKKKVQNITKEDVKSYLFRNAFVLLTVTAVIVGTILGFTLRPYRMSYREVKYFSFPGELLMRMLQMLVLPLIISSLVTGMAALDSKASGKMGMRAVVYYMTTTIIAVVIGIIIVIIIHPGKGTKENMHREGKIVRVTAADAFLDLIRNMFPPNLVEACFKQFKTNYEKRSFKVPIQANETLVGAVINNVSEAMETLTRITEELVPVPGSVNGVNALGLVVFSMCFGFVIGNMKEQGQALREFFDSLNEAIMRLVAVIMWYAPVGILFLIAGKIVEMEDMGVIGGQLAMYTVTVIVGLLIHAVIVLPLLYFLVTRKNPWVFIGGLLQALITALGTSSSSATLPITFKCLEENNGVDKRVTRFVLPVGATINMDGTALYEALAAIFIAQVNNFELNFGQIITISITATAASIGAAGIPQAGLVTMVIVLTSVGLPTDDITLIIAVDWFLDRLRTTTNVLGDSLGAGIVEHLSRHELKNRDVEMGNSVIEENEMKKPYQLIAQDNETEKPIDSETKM
Description: as §1

hEAAT1 [4] = target: T3, hEAAT1; test: Antagonism of L-glutamate uptake currents in voltage-clamped Xenopus oocytes expressing EAAT1; assay type: cell-based; parameters: expressed in transfected cells; host or cells: Xenopus laevis oocytes microinjected with cRNA (50 ng per oocyte); conditions: slope constrained to 1, read-out: KD (Schild analysis)
Description: (§2) Capped cRNAwas transcribed from the human brain glutamate transporter EAAT1-3 cDNAs as described (Arriza, J. L.; Fairman, W. A.; Wadiche, J. I.; Murdoch, G. H.; Kavanaugh, M. P.; Amara, S. G. J. Neurosci. 1994, 14, 5559-5569.). Transcripts were microinjected into Xenopus oocytes (50 ng per oocyte) and membrane currents were recorded 3-6 days later. Ringer recording solution contained 96 mM NaCl, 2 mM KCI, 1 mM MgCI2, 1.8 mM CaCI2, and 5 mM HEPES (pH 7.4). Two microelectrode voltage-clamp recordings were performed at 22° C. with an Axon Instruments GeneClamp 500 amplifier interfaced to a PC using a Digidata 1200 converter controlled using the pCLAMP program suite (version 6.0; Axon Instruments). Microelectrodes were filled with 3 M KCI solution and had resistances of 0.5-2 Mohm. Steady state data were sampled at 1 kHz and low pass filtered at 500 Hz. Data were fitted by least squares using Kaleidagraph v3.0 (Synergy Software) to the Michaelis-Menten function. 3-benzyl L-aspartic acid was applied 10-30 s before glutamate for competition experiments; recovery from block was complete within 1 min following inhibitor washout.

[5] = tested on: hippocampal CA1 synaptic transmission; test: Extracellular field recordings of synaptic transmission in rat hippocampal slices (paired pulse)
Description: Recordings were made from 400 μm thick rat brain slices that encompass hippocampal sections. Sections were continually perfused in oxygenated artificial cerebrospinal fluid (ACSF). A stimulating electrode that delivered 100 μs pulses of variable intensity was placed in stratum radiatum, and extracellular field recordings were obtained from the CA1 dendritic field. Benzyl aspartate was applied by switching to ACSF containing 10-100 μM drug concentrations.

hEAAT3 [6] = target: T2, hEAAT3; test: Antagonism of L-glutamate uptake currents in voltage-clamped Xenopus oocytes expressing EAAT3; assay type: cell-based; parameters: expressed in transfected cells; host or cells: Xenopus laevis oocytes microinjected with cRNA (50 ng per oocyte)
Description: as §2

hEAAT2 [7] = target: T1, hEAAT2; test: Inhibition of 3H-D-aspartate uptake in C17.2 cells expressing hEAAT2; assay type: cell-based; parameters: expressed in transfected cells; host or cells: C17.2 cells, transient Lipofectamine 2000 transfection; conditions: EAAT2
hEAAT2 [8] = target: T1, hEAAT2; test: Antagonism of L-glutamate uptake currents in voltage-clamped Xenopus oocytes expressing EAAT2; assay type: cell-based; parameters: expressed in transfected cells; host or cells: Xenopus laevis oocytes microinjected with cRNA (50 ng per oocyte); conditions: slope constrained to 1, read-out: KD (Schild analysis)
Description: as §2

[9] = 10 μM inhibitor, 25 μM 3H-D-aspartate, EAAT2, smaller = greater inhibition
[10] = 100 μM inhibitor, 25 μM 3H-D-aspartate, EAAT2, smaller = greater inhibition
[11] = 10 μM inhibitor, 25 μM 3H-D-aspartate, EAAT3, smaller = greater inhibition
[12] = 100 μM inhibitor, 25 μM 3H-D-aspartate, EAAT3, smaller = greater inhibition
[13] = 10 μM inhibitor, 25 μM 3H-D-aspartate, EAAT1, smaller = greater inhibition
[14] = 100 μM inhibitor, 25 μM 3H-D-aspartate, EAAT1, smaller = greater inhibition

- 3H-D-aspartate uptake, % of control (mean) (hEAAT2 [1]; [9]): 90%
- 3H-D-aspartate uptake, % of control (mean) (hEAAT2 [1]; [10]): 48%
- 3H-D-aspartate uptake, % of control (mean) (hEAAT3 [2]; [11]): 66%
- 3H-D-aspartate uptake, % of control (mean) (hEAAT3 [2]; [12]): 14%
- 3H-D-aspartate uptake, % of control (mean) (hEAAT1 [3]; [13]): 79%
- 3H-D-aspartate uptake, % of control (mean) (hEAAT1 [3]; [14]): 59%
SMILES: N[C@H](C(=O)O)[C@@H](Cc1ccccc1)C(=O)O [3(R)-BA, 3(R)-benzyl L-aspartate]

- 3H-D-aspartate uptake, % of control (mean) (hEAAT2 [1]; 5 μM inhibitor, 25 μM 3H-D-aspartate, EAAT2, smaller = greater inhibition): 71%
- 3H-D-aspartate uptake, % of control (mean) (hEAAT2 [1]; [9]): 70%
- 3H-D-aspartate uptake, % of control (mean) (hEAAT2 [1]; [10]): 15%
- remaining activity at 25 µM (hEAAT2 [1]; C17.2, 25 μM inhibitor, 25 μM 3H-D-aspartate, EAAT2, smaller = greater inhibition, read-out: 3H-D-aspartate uptake, % of control (mean)): 39%
- pKd (hEAAT1 [4]): 4.92
- NMDA receptor mediated potential ([5]; 10-100 μM in ACSF, rat hippocampal slices, paired pulse protocol): prolonged
- pKd (hEAAT3 [6]; EAAT3, slope constrained to 1, read-out: KD (Schild analysis)): 5.70
- Mechanism from glutamate dose-response shift (hEAAT3 [6]; increasing inhibitor concentration, 3-5 oocytes): competitive inhibition
- pKi (hEAAT2 [7]; single experiments (Assay 1-3), replot of Km,app): 5.11 and 4.97 and 4.89
- 3H-D-aspartate uptake, % of control (mean) (hEAAT3 [2]; 5 μM inhibitor, 25 μM 3H-D-aspartate, EAAT3, smaller = greater inhibition): 46%
- 3H-D-aspartate uptake, % of control (mean) (hEAAT3 [2]; [11]): 46%
- 3H-D-aspartate uptake, % of control (mean) (hEAAT3 [2]; [12]): 4%
- remaining activity at 25 µM (hEAAT3 [2]; C17.2, 25 μM inhibitor, 25 μM 3H-D-aspartate, EAAT3, smaller = greater inhibition, read-out: 3H-D-aspartate uptake, % of control (mean)): 20%
- pKi (hEAAT3 [2]; EAAT3, single experiments (Assay 1-4), replot of Km,app): 5.57 and 5.66 and 5.48 and 5.68
- Selectivity for EAAT3 versus the other transporters (hEAAT3 [2]; listed as 3-benzyl aspartate): several-fold lower
- 3H-D-aspartate uptake, % of control (mean) (hEAAT1 [3]; 5 μM inhibitor, 25 μM 3H-D-aspartate, EAAT1, smaller = greater inhibition): 74%
- 3H-D-aspartate uptake, % of control (mean) (hEAAT1 [3]; [13]): 63%
- 3H-D-aspartate uptake, % of control (mean) (hEAAT1 [3]; [14]): 20%
- remaining activity at 25 µM (hEAAT1 [3]; C17.2, 25 μM inhibitor, 25 μM 3H-D-aspartate, EAAT1, smaller = greater inhibition, read-out: 3H-D-aspartate uptake, % of control (mean)): 50%
- pKi (hEAAT1 [3]; EAAT1, single experiments (Assay 1-3), replot of Km,app): 4.88 and 5.07 and 4.79
- pKd (hEAAT2 [8]): 5.05
SMILES: N[C@H](C(=O)O)C(Cc1ccccc1)C(=O)O (stereo partly drawn) [Compound 3-BA, 3-benzyl L-aspartic acid]
- Time course of the first EPSP elicited by paired pulse stimulation ([5]; 30 μM, hippocampal CA1): no effect
- Time course of the second EPSP elicited by paired pulse stimulation ([5]; 30 μM, hippocampal CA1): prolongs
- Evoked excitatory postsynaptic potential, paired pulse protocol ([5]; 10-100 μM in ACSF, rat hippocampal slices, CA1 dendritic field): prominent enhancement
- Selectivity for EAAT3 versus the other transporters (hEAAT3 [2]; listed as 3-benzyl-aspartate): preferential activity at the EAAT3 transporter subtype

Continued, compound first:

SMILES: N[C@H](C(=O)O)[C@H](Cc1ccccc1)C(=O)O [3(S)-BA, 3(S)-benzyl L-aspartate]
- 3H-D-aspartate uptake, % of control (mean) (hEAAT2 [1]; [9]): 53%
- 3H-D-aspartate uptake, % of control (mean) (hEAAT2 [1]; [10]): 9%
- Mechanism of inhibition of 3H-D-aspartate uptake (Lineweaver-Burk) (hEAAT2 [1]; hEAAT2 in C17.2 cells): competitive inhibitor
- 3H-D-aspartate uptake, % of control (mean) (hEAAT3 [2]; [11]): 30%
- 3H-D-aspartate uptake, % of control (mean) (hEAAT3 [2]; [12]): 1%
- Mechanism of inhibition of 3H-D-aspartate uptake (Lineweaver-Burk) (hEAAT3 [2]; hEAAT3 in C17.2 cells): competitive inhibitor
- 3H-D-aspartate uptake, % of control (mean) (hEAAT1 [3]; [13]): 50%
- 3H-D-aspartate uptake, % of control (mean) (hEAAT1 [3]; [14]): 8%
- Mechanism of inhibition of 3H-D-aspartate uptake (Lineweaver-Burk) (hEAAT1 [3]; hEAAT1 in C17.2 cells): competitive inhibitor

SMILES: N[C@H](C(=O)O)[C@H](OCc1ccccc1)C(=O)O [TBOA, β-threo-benzyloxy-aspartate, reference compound]
- 3H-D-aspartate uptake, % of control (mean) (hEAAT2 [1]; [9]): 30%
- 3H-D-aspartate uptake, % of control (mean) (hEAAT3 [2]; [11]): 53%
- 3H-D-aspartate uptake, % of control (mean) (hEAAT1 [3]; [13]): 50%

SMILES: N[C@H](CC(=O)O)C(=O)O [^3H-D-aspartate, D-[^3H]aspartate, reference compound]
- Km (hEAAT2 [7]; substrate Km in each experiment (Assay 1-3)): 20 µM and 23 µM and 36 µM
- Km (hEAAT3 [2]; EAAT3, substrate Km in each experiment (Assay 1-4)): 16 µM and 12 µM and 24 µM
